One experiment addresses T1, PDE2 (Homo sapiens, UniProt O00408).
T1 construct: PDE2 was isolated from human platelets, provided by Etablissement Français du Sang-Alsace; tissue Etablissement Français du Sang-Alsace; host or cells: human platelets
The experiment is described as follows: Inhibition of PDE2 (radioenzymatic phosphodiesterase assay). To be noted: Table 1; 10 μM compound; 1 μM cyclic AMP. The class given is biochemical. Here is the method: 2.1.1. Isolation of Phosphodiesterases from Smooth Muscle A 3 g segment of bovine aortic media cut into pieces with scissors was homogenized with an ultra-turrax then a potter glass/glass homogenizer in 7 volumes by weight of buffer A containing a protease inhibitor cocktail (20 mM Tris-HCl, 0.25 M saccharose, 2 mM magnesium acetate, 1 mM dithiothreitol, 5 mM EGTA, 2000 U/ml aprotinin, 10 mg/l leupeptin and 10 mg/l soya trypsic inhibitor). The homogenizate was centrifuged at 105,000 g for 1 hour. The supernatant was loaded on a DEAE-Sephacel column (15×1.6 cm) pre-equilibrated with buffer B (buffer A without the saccharose, EGTA and protease inhibitors). The column was washed until there was no detectable absorption at 280 nm, then eluted with a linear gradient of NaCl (0-0.5 M) in buffer B. 3-ml fractions were collected and enzyme activity was determined under the conditions described hereinbelow to localize the different enzymes PDE1, PDE3, PDE4 and PDE5 which were aliquoted and frozen at −80° C. (Lugnier et al., Biochem. Phamacol., 1986, 35: 1746-1751). PDE2 was isolated from human platelets, provided by Etablissement Français du Sang-Alsace, according to Kameni Tcheudji J F et al., (J. Mol. Biol. 2001; 310: 181-791), and stored until use at −80° C. in small aliquots.
Cyclic nucleotide phosphodiesterase activity was determined by a radioenzymatic method using tritium-labelled cyclic GMP or AMP (1 μM) as substrate (Lugnier et al., 1986). ^3H-labelled adenosine or guanosine monophosphate formed by hydrolysis of the radiolabelled cyclic nucleotide was then converted to ^3H-labelled adenosine or guanosine in a second reaction with […] in excess. The nucleoside formed was separated from the nucleotides by anion exchange chromatography. Nucleoside radioactivity was determined by liquid scintillation counting. Enzymatic incubations were carried out under conditions allowing no more than 15% hydrolysis of the substrate; each point was performed in duplicate.
The concentration of substance which inhibits enzymatic activity by 50% (IC50) at 1 μM cyclic AMP was calculated by nonlinear regression from the experimental values of hydrolysis rate (Prism, GraphPad).
T1 sequence (O00408 whole entry): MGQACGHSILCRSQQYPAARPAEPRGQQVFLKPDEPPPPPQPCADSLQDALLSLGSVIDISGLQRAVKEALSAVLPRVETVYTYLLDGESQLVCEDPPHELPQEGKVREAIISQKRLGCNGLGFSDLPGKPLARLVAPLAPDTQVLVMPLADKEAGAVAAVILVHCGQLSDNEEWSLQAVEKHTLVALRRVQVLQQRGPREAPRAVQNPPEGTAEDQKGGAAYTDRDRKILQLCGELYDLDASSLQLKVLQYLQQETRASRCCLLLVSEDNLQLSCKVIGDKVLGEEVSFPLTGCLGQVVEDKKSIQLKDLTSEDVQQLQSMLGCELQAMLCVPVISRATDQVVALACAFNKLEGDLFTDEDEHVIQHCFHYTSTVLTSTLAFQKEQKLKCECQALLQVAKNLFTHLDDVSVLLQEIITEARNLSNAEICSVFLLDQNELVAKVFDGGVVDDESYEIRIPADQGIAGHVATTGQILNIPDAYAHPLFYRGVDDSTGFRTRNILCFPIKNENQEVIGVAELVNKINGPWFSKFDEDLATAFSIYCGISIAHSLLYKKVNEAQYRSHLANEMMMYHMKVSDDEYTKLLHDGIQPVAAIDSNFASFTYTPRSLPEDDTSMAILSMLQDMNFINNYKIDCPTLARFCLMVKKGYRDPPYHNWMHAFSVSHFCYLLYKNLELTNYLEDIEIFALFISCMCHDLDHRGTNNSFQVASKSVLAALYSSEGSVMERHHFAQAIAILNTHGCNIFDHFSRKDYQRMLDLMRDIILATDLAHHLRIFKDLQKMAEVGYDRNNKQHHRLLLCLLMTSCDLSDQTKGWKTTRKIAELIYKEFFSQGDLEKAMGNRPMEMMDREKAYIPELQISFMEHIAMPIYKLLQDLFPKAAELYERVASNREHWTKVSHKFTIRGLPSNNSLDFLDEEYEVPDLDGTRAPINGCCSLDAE
Turning to `COc1cc2c(c(OC)c1-c1cccnc1)C(c1cccc(C#N)c1)=NCC(=O)N2` [Compound 4], the “PDE2 percentage inhibition at 10 μM” value was found to be 4%. The same measure, in the same setting: in the case of `COc1cc2c(c(OC)c1-c1cccnc1)C(c1cccc(C(N)=O)c1)=NCC(=O)N2` [Compound 19, 3-(6,8-Dimethoxy-2-oxo-7-pyridin-3-yl-2,3-dihydro-1H-benzo[e][1,4]diazepin-5-yl)-benzamide] it was 27%; in that of `COc1cc2c(c(OC)c1-c1ccccc1)C(c1cccc(C#CCNC(=O)OC(C)(C)C)c1)=NCC(=O)N2C` [Compound 30, {3-[3-(6,8-Dimethoxy-1-methyl-2-oxo-7-phenyl-2,3-dihydro-1-benzo[e][1,4]diazepin-5-yl)-phenyl]-prop-2-ynyl}-carbamic acid tert-butyl ester], 69%.

The same experiment, now with this note: Table 1; 10 μM compound; 1 μM cyclic AMP; read-out: PDE2 percentage inhibition at 10 μM.
What is called inhibition is the relative decrease from the control value, in per cent. With `COc1cc2c(c(OC)c1-c1ccccc1)C(c1ccccc1)=NCC(=O)N2` [Compound 3, 6,8-Dimethoxy-5,7-diphenyl-1,3-dihydro-benzo[e][1,4]diazepin-2-one], the inhibition at 10 µM worked out at 25%.

Regarding `COc1cc2c(c(OC)c1-c1ccccc1)C(c1cccc(Br)c1)=NCC(=O)N2C` [Compound 10, 5-(3-Bromo-phenyl)-6,8-dimethoxy-1-methyl-7-phenyl-1,3-dihydro-benzo[e][1,4]diazepin-2-one], the inhibition at 10 µM amounted to 86%.

The experiment is the same for the next values; noted with them: read-out: PDE2 percentage inhibition at 10 μM, Table 1; 10 μM compound; 1 μM cyclic AMP.
Consider `CCN1C(=O)CN=C(c2cccc(C#N)c2)c2c1cc(OC)c(-c1ccccc1)c2OC` [Compound 11, 3-(6,8-Dimethoxy-2-oxo-7-phenyl-1-ethyl-2,3-dihydro-1H-benzo[e][1,4]diazepin-5-yl)-benzonitrile], for which the inhibition at 10 µM amounted to 10%. On to `CCCN1C(=O)CN=C(c2cccc(C#N)c2)c2c1cc(OC)c(-c1ccccc1)c2OC` [Compound 12, 3-(6,8-Dimethoxy-2-oxo-7-phenyl-1-propyl-2,3-dihydro-1H-benzo[e][1,4]diazepin-5-yl)-benzonitrile], for which the inhibition at 10 µM came to 17%. As to `COc1cc2c(c(OC)c1-c1ccccc1)C(c1cccc(C#N)c1)=NCC(=O)N2CC1CC1` [Compound 13, 3-(1-Cyclopropylmethyl-6,8-dimethoxy-2-oxo-7-phenyl-2,3-dihydro-1H-benzo[e][1,4]diazepin-5-yl)-benzonitrile], the inhibition at 10 µM was determined as 20%. Turning to `COc1cc2c(c(OC)c1-c1ccccc1)C(c1cccc(C#N)c1)=NCC(=O)N2Cc1ccccc1` [Compound 14, 3-(1-Benzyl-6,8-dimethoxy-2-oxo-7-phenyl-2,3-dihydro-1H-benzo[e][1,4]diazepin-5-yl)-benzonitrile], the inhibition at 10 µM came to 9%. On to `COc1cc2c(c(OC)c1-c1ccccc1)C(c1cccc(C#N)c1)=NCC(=O)N2Cc1ccc(C(F)(F)F)cc1` [Compound 15, 3-[6,8-Dimethoxy-2-oxo-7-phenyl-1-(4-trifluoromethyl-benzyl)-2,3-dihydro-1H-benzo[e][1,4]diazepin-5-yl]-benzonitrile], for which the inhibition at 10 µM was determined as 9%. Same read-out and setting: the result for `COc1cc2c(c(OC)c1-c1ccccc1)C(c1cccc(C#N)c1)=NCC(=O)N2CCCc1ccccc1` [Compound 16, 3-[6,8-Dimethoxy-2-oxo-7-phenyl-1-(3-phenyl-propyl)-2,3-dihydro-1H-benzo[e][1,4]diazepin-5-yl]-benzonitrile] reads 18%; that for `CCN1C(=O)CN=C(c2cccc(C(N)=O)c2)c2c1cc(OC)c(-c1ccccc1)c2OC` [Compound 21, 3-(6,8-Dimethoxy-2-oxo-7-phenyl-1-ethyl-2,3-dihydro-1H-benzo[e][1,4]diazepin-5-yl)-benzamide], 31%; that for `CCCN1C(=O)CN=C(c2cccc(C(N)=O)c2)c2c1cc(OC)c(-c1ccccc1)c2OC` [Compound 22, 3-(6,8-Dimethoxy-2-oxo-7-phenyl-1-propyl-2,3-dihydro-1H-benzo[e][1,4]diazepin-5-yl)-benzamide], 16%.

Regarding `COc1cc2c(c(OC)c1-c1ccccc1)C(c1cccc(C(N)=O)c1)=NCC(=O)N2CC1CC1` [Compound 23, 3-(1-Cyclopropylmethyl-6,8-dimethoxy-2-oxo-7-phenyl-2,3-dihydro-1H-benzo[e][1,4]diazepin-5-yl)-benzamide], the inhibition at 10 µM worked out at 15%. On to `COc1cc2c(c(OC)c1-c1ccccc1)C(c1cccc(C(N)=O)c1)=NCC(=O)N2Cc1ccccc1` [Compound 24, 3-(1-Benzyl-6,8-dimethoxy-2-oxo-7-phenyl-2,3-dihydro-1H-benzo[e][1,4]diazepin-5-yl)-benzamide], for which the inhibition at 10 µM is 18%.

Consider `COc1cc2c(c(OC)c1-c1ccccc1)C(c1cccc(C(N)=O)c1)=NCC(=O)N2Cc1ccc(C(F)(F)F)cc1` [Compound 25, 3-[6,8-Dimethoxy-2-oxo-7-phenyl-1-(4-trifluoromethyl-benzyl)-2,3-dihydro-1H-benzo[e][1,4]diazepin-5-yl]-benzamide], for which the inhibition at 10 µM was found to be 18%. Still for that read-out and setting: the result for `COc1cc2c(c(OC)c1-c1ccccc1)C(c1cccc(C(N)=O)c1)=NCC(=O)N2CCCc1ccccc1` [Compound 26, 3-[6,8-Dimethoxy-2-oxo-7-phenyl-1-(3-Phenyl-propyl)-2,3-dihydro-1H-benzo[e][1,4]diazepin-5-yl]-benzamide] reads 5%.

`COCC#Cc1cccc(C2=NCC(=O)N(C)c3cc(OC)c(-c4ccccc4)c(OC)c32)c1` [Compound 27, 6,8-Dimethoxy-5-[3-(3-methoxy-prop-1-ynyl)-phenyl]-1-methyl-7-phenyl-1,3-dihydro-benzo[e][1,4]diazepin-2-one]: the inhibition at 10 µM worked out at 83%. The same measure, in the same setting: in the case of `COc1cc2c(c(OC)c1-c1ccccc1)C(c1cccc(C#CCNC(=O)OC(C)(C)C)c1)=NCC(=O)N2C` [Compound 28, {3-[3-(6,8-Dimethoxy-1-methyl-2-oxo-7-phenyl-2,3-dihydro-1H-benzo[e][1,4]diazepin-5-yl)-phenyl]-prop-2-ynyl}-carbamic acid tert-butyl ester] it was 43%; in that of `COc1cc2c(c(OC)c1-c1ccccc1)C(c1cccc(C#CCN)c1)=NCC(=O)N2C` [Compound 31, 5-[3-(3-Amino-prop-1-ynyl)-phenyl]6,8-dimethoxy-1-methyl-7-phenyl-1,3-dihydro-benzo[e][1,4]diazepin-2-one], 42%. In the case of `COc1cc2c(c(OC)c1-c1ccccc1)C(c1cccc(CCCN)c1)=NCC(=O)N2C` [Compound 32, 5-[3-(3-Amino-propyl)-phenyl]-6,8-dimethoxy-1-methyl-7-phenyl-1,3-dihydro-benzo[e][1,4]diazepin-2-one], the inhibition at 10 µM came out at 22%.

For the next experiment, the system named is σ receptors. The experiment can be described thus: Isolated organ bioassay, field-stimulated vas deferens: test for agonist activity. The arrangement: species or system guinea pig. The conditions noted are these: 1.0 10^−4 M; mean, n=2. As to the method:
Segments of guinea pig vas deferens were suspended in 20-ml organ baths containing an oxygenated (95% O2 and 5% CO2) and pre-warmed (37° C.) physiological salt solution of the following composition (in mM): NaCl 118.0, KCl 4.7, MgSO4 1.2, CaCl2 2.5, KH2PO4 1.2, NaHCO3 25.0 and glucose 11.0 (pH 7.4). Yohimbine (1 μM), (−) sulpiride (1 μM), atropine (1 μM) and naloxone (1 μM) were also present throughout the experiments to block the α2-adrenergic, dopamine D2, muscarinic and opioid receptors, respectively. The tissues were connected to force transducers for isometric tension recordings. They were stretched to a resting tension of 0.5 g, allowed to equilibrate for at least 30 min during which time they were washed repeatedly and the tension readjusted. Thereafter, they were stimulated electrically using a constant current stimulator.
The tissues were exposed to a submaximal concentration of the reference agonist (+) SKF-10047 (100 μM) to verify responsiveness and to obtain a control response. Following washings and recovery of the twitch contraction amplitude, the tissues were exposed to increasing concentrations of substance or the same agonist. The different concentrations were added cumulatively and each was left in contact with the tissues until a stable response was obtained or for a maximum of 15 min. If an agonist-like response (enhancement of twitch contractions) was obtained, the reference antagonist rimcazole (10 μM) was tested against the highest concentration of substance to confirm the involvement of the σ receptors in this response.
The parameter measured was the maximum change in the twitch contraction amplitude induced by each compound concentration. The results are expressed as a percent variation of the control twitch contraction amplitude (mean values). The effects of substance tested at 1.0 10^−6 M, 3.0 10^−6 M and 1.0 10^−5 M for agonist and antagonist activities at the σ receptors in the guinea pig vas deferens bioassay are summarized in Tables 6-7 where those of the reference compounds are also reported.
As to (+)SKF-10,047, the “Response to the compound, variation of twitch contraction amplitude” value (“Response to the compound, variation” for short) is “+158%”.

The same experiment, now with this note: 1.0 10^−5 M; mean, n=2.
Take (+)SKF-10,047: the “Response to the compound, variation” value is “+40%”.

Staying with this experiment, now noted: 3.0 10^−5 M; mean, n=2.
(+)SKF-10,047: the “Response to the compound, variation” value is given as “+90%”.

The experiment is the same for the next values; noted with them: field-stimulated guinea pig vas deferens.
Consider (+)SKF-10,047, for which the “Effect on twitch contraction amplitude (in words)” value is reported as “concentration-dependent enhancement of the twitch contraction amplitude”.

The same experiment, now with this note: highest compound concentration plus rimcazole 1.0 10^−5 M; mean, n=2.
With (+)SKF-10,047, the “Response to the highest concentration of the compound +Rimcazole (1.0 10^−5 M)” value is given as −8%.

For the origin of these results see patent US20090215752A1, “Compounds, preparation and therapeutic use thereof” (priority 2005, published 2009).
